This note sets out measurements from patent US20080234324A1, “Piperidine Derivatives as Gcs Inhibitors” (priority 2004, published 2008).

Usually IC50 stands for the concentration needed to halve the response being measured.

Molecules are shown by their SMILES.

Assay [1] addresses T1, human recombinant GCS expressed in insect cells (Homo sapiens, UniProt Q16739).
T1 construct: made in house; host or cells: insect cells
T1 sequence (Q16739 1-394): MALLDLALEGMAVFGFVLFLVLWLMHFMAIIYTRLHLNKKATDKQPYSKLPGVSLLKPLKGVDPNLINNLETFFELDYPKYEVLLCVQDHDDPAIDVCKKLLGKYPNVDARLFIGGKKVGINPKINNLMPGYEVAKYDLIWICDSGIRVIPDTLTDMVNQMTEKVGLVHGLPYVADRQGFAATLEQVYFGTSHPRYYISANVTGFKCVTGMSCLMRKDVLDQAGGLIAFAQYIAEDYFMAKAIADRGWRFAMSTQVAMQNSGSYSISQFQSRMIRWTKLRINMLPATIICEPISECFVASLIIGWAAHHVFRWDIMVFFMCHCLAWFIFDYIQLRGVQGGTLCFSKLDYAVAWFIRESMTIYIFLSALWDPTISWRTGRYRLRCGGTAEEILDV
Briefly: Inhibition of GCS. Type of assay: biochemical. On the procedure: The assay for inhibition of GCS was performed essentially as described in Platt et al., J. Biol. Chem., (1994), 269, 27108, the enzyme source being human recombinant GCS expressed in insect cells.

Assay [2] addresses T2, non-lysosomal-β-glucocerebrosidase (Homo sapiens, UniProt Q9HCG7).
T2 construct: whole cell extracts of MCF7 (a human breast carcinoma cell line) was used as the source of the enzyme; endogenous in cells; host or cells: MCF7 whole cell extract
T2 sequence (Q9HCG7 1-927): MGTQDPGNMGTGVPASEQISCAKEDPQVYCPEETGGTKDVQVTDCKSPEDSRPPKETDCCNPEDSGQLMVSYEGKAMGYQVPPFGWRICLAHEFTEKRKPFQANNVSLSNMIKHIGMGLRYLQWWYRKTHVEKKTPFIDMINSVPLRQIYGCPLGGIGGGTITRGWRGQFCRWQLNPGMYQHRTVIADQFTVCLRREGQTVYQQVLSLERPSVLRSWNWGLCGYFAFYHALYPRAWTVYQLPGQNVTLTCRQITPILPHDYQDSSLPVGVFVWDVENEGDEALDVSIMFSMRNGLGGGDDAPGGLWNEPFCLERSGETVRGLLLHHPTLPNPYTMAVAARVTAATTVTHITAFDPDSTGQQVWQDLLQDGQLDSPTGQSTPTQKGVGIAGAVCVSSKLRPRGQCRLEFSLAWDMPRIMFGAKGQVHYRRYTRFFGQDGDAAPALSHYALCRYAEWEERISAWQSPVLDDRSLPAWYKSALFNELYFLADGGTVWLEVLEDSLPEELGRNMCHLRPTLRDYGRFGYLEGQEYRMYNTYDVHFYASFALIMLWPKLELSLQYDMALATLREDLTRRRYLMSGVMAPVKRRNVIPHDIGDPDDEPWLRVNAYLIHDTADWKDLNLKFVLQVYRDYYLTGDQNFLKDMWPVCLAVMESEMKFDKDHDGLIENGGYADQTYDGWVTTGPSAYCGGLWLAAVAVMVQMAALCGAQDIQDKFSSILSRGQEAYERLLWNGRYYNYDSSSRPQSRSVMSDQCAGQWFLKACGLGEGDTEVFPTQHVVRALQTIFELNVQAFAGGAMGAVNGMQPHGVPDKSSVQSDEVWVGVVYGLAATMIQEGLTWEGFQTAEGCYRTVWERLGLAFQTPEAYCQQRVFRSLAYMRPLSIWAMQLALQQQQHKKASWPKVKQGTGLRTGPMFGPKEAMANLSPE
Briefly: Inhibition of non-lysosomal-β-glucocerebrosidase. Type of assay: biochemical. Conditions: whole cell extracts of MCF7 as enzyme source; 5 mM 4-MU β-glucoside; pH 5.8.

`OC[C@@H]1[C@H](O)[C@H](O)[C@@H](O)CN1Cc1ccc(OCc2ccccc2)cc1` [Example 1]: the IC50 in assay [1] worked out at 1.3 µM; in assay [2], 10 µM.
